Laboratory results: PubChem BioAssay (NCI)
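The compound was tested at five concentrations on cells cultured in 96-well plates, with a 48-hour exposure period. At the TGI there is no net growth.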

Assays:
Assay in all cases: DTP human tumour cell line panel, 48 h
SNB-75 CNS = tested on: SNB-75 CNS
SF-268 CNS = tested on: SF-268 CNS
HOP-92 NSCLC = tested on: HOP-92 NSCLC
SF-295 CNS = tested on: SF-295 CNS
SR leukemia = tested on: SR leukemia
HT29 colon = tested on: HT29 colon
SN12C renal = tested on: SN12C renal
K-562 leukemia = tested on: K-562 leukemia
UACC-62 melanoma = tested on: UACC-62 melanoma
NCI/ADR-RES ovarian = tested on: NCI/ADR-RES ovarian
CCRF-CEM leukemia = tested on: CCRF-CEM leukemia
NCI-H460 lung = tested on: NCI-H460 lung
HCC-2998 colon = tested on: HCC-2998 colon
786-0 renal = tested on: 786-0 renal
SNB-19 CNS = tested on: SNB-19 CNS
PC-3 prostate = tested on: PC-3 prostate
SW-620 colon = tested on: SW-620 colon
OVCAR-3 ovarian = tested on: OVCAR-3 ovarian
ACHN renal = tested on: ACHN renal
HCT-116 colon = tested on: HCT-116 colon
UO-31 renal = tested on: UO-31 renal
IGROV1 ovarian = tested on: IGROV1 ovarian
OVCAR-4 ovarian = tested on: OVCAR-4 ovarian
KM12 colon = tested on: KM12 colon
RXF 393 renal = tested on: RXF 393 renal
OVCAR-5 ovarian = tested on: OVCAR-5 ovarian
MALME-3M melanoma = tested on: MALME-3M melanoma
HS 578T breast = tested on: HS 578T breast
TK-10 renal = tested on: TK-10 renal
EKVX NSCLC = tested on: EKVX NSCLC
NCI-H522 lung = tested on: NCI-H522 lung
NCI-H226 lung = tested on: NCI-H226 lung
A498 renal = tested on: A498 renal
SF-539 CNS = tested on: SF-539 CNS
MCF7 breast = tested on: MCF7 breast
MOLT-4 leukemia = tested on: MOLT-4 leukemia
UACC-257 melanoma = tested on: UACC-257 melanoma
LOX IMVI melanoma = tested on: LOX IMVI melanoma
CAKI-1 renal = tested on: CAKI-1 renal
COLO 205 colon = tested on: COLO 205 colon
M14 melanoma = tested on: M14 melanoma
HL-60(TB) leukemia = tested on: HL-60(TB) leukemia
NCI-H23 lung = tested on: NCI-H23 lung
MDA-N = tested on: MDA-N
SK-MEL-28 melanoma = tested on: SK-MEL-28 melanoma
HCT-15 colon = tested on: HCT-15 colon
MDA-MB-435 = tested on: MDA-MB-435
HOP-62 NSCLC = tested on: HOP-62 NSCLC
OVCAR-8 ovarian = tested on: OVCAR-8 ovarian
MDA-MB-231 breast = tested on: MDA-MB-231 breast
RPMI-8226 leukemia = tested on: RPMI-8226 leukemia
BT-549 breast = tested on: BT-549 breast
SK-MEL-2 melanoma = tested on: SK-MEL-2 melanoma
T-47D breast = tested on: T-47D breast
SK-MEL-5 melanoma = tested on: SK-MEL-5 melanoma
U251 CNS = tested on: U251 CNS
SK-OV-3 ovarian = tested on: SK-OV-3 ovarian
DU-145 prostate = tested on: DU-145 prostate
A549 NSCLC = tested on: A549 NSCLC

Measured: TGI

CCn1cc(C(=O)O)c(=O)c2cc(F)c(N3CCN(CN4C(=O)/C(=N\c5ncc(Cc6cc(OC)c(OC)c(OC)c6)c(N)n5)c5cc(Cl)ccc54)CC3)cc21
> 100 µM: all assays above
